# Assay results taken from patent publication US7291641B2, “Derivatives of heterocycles with 5 members, their preparation and their use as medicaments” (Societe de Conseils de Recherches et d'Applications …, priority 1999, dated 2007).
# Where a name gives a salt, the structure may show the parent alone.
row,SMILES,melting point [°C]
1,"CCCCCCC(N)c1nc(-c2ccc(N(CC)CC)cc2)c[nH]1 (racemic) (as salt: hydrochloride) [Example 218, (R,S)-4-[2-(1-aminoheptyl)-1H-imidazol-4-yl]-N,N-diethylaniline]",192
2,"CCCCCCC(N)c1nc(-c2ccc(F)cc2)c[nH]1 (racemic) (as salt: hydrochloride) [Example 220, (R,S)-1-[4-(4-fluorophenyl)-1H-imidazol-2-yl]-1-heptanamine]",148 to 150
3,"CCCCCCC(N)c1nc(-c2ccccc2Cl)c[nH]1 (racemic) (as salt: hydrochloride) [Example 221, (R,S)-1-[4-(2-chlorophenyl)-1H-imidazol-2-yl]-1-heptanamine]",138 to 140
4,"CCCCCCC(NCc1ccccc1)c1nc(-c2ccc(N(CC)CC)cc2)c[nH]1 (racemic) (as salt: hydrochloride) [Example 230, (R,S)-N-benzyl-N-(1-{4-[4-(diethylamino)phenyl]-1H-imidazol-2-yl}heptyl)amine]",170
5,"CCCCCCC(N)c1nc(-c2ccc(Cl)c(Cl)c2)c[nH]1 (racemic) (as salt: hydrochloride) [Example 231, (R,S)-1-[4-(3,4-dichlorophenyl)-1H-imidazol-2-yl]-1-heptanamine]",148 to 150
6,"CC(C)CCCC(N)c1nc(-c2cccc(Br)c2)c[nH]1 (racemic) (as salt: hydrochloride) [Example 233, (R,S)-1-[4-(3-bromophenyl)-1H-imidazol-2-yl]-5-methyl-1-hexanamine]",200 to 202
7,"CCCCCCC(NC1CCCCC1)c1nc(-c2ccc(Cl)c(Cl)c2)c[nH]1 (racemic) (as salt: hydrochloride) [Example 250, (R,S)-N-{1-[4-(3,4-dichlorophenyl)-1H-imidazol-2-yl]heptyl}-cyclohexanamine]",194
8,"CCCCCCC(NC1CCCCC1)c1nc(-c2ccc(-c3ccccc3)cc2)c[nH]1 (racemic) (as salt: hydrochloride) [Example 252, (R,S)-N-[1-(4-[1,1′-biphenyl]-4-yl-1H-imidazol-2-yl)heptyl]-cyclohexanamine]",168 to 170
9,"NC(Cc1c[nH]c2ccc(F)cc12)c1nc(-c2ccc(F)cc2)c[nH]1 (racemic) (as salt: hydrochloride) [Example 253, (R,S)-2-(5-fluoro-1H-indol-3-yl)-1-[4-(4-fluorophenyl)-1H-imidazol-2-yl]ethylamine]",220 to 222
10,"Fc1ccc(-c2c[nH]c(C(Cc3c[nH]c4ccc(F)cc34)NC3CCC3)n2)cc1 (racemic) (as salt: hydrochloride) [Example 256, (R,S)-N-{2-(5-fluoro-1H-indol-3-yl)-1-[4-(4-fluorophenyl)-1H-imidazol-2-yl]ethyl}cyclobutanamine]",180 to 190
11,"CC(C)CCC(NC1CCCCC1)c1nc(-c2ccc(F)cc2)c[nH]1 (racemic) (as salt: hydrochloride) [Example 257, (R,S)-N-{1-[4-(4-fluorophenyl)-1H-imidazol-2-yl]4-methylpentyl}-cyclohexanamine]",230 to 232
12,"CCCCCCC(NCC1CCCCC1)c1nc(-c2ccccc2)c[nH]1 (racemic) (as salt: hydrochloride) [Example 263, (R,S) N-(cyclohexylmethyl)-1-(4-phenyl-1H-imidazol-2-yl)-1-heptanamine]",142 to 144
13,"CC(C)CCCC(NC1CCCCC1)c1nc(-c2cccc(Br)c2)c[nH]1 (racemic) (as salt: hydrochloride) [Example 272, (R,S)-N-{1-[4-(3-bromophenyl)-1H-imidazol-2-yl]-5-methylhexyl}-cyclohexanamine]",216.7
14,"CCCCC(NC(=O)OC(C)(C)C)c1nc(-c2ccc(-c3ccccc3)cc2)c[nH]1 (racemic) [Example 59, (R,S)-4-(2-{1-[(tert-butoxycarbonyl)amino]pentyl}-1H-imidazol-4-yl)-1,1′-biphenyl]",172 to 176
15,"CCCCC(NCc1ccccc1)c1nc(-c2ccc(-c3ccccc3)cc2)c[nH]1 (racemic) [Example 60, (R,S)—N-benzyl-1-(4-[1,1′-biphenyl]4-yl-1H-imidazol-2-yl)-1-pentanamine]",201 to 203
16,"CCCCCCNC(CCCCCC)c1nc(-c2ccccc2)c[nH]1 (racemic) [Example 64, (R,S)-N-hexyl-1-(4-phenyl-1H-imidazol-2-yl)-1-heptanamine]",140 to 142
17,"CCCCCCC(NCCCCC)c1nc(-c2ccccc2)c[nH]1 (racemic) [Example 75, (R,S)-N-pentyl-1-(4-phenyl-1H-imidazol-2-yl)-1-heptanamine]",118 to 120
18,"CCCCCCC(NC1CCCCC1)c1nc(-c2ccccc2)c[nH]1 (racemic) [Example 76, (R,S)-N-[1-(4-phenyl-1H-imidazol-2-yl)heptyl]cyclohexanamine]",68 to 70
19,"CCCCCCC(NCc1ccccc1)c1nc(-c2ccc(Cl)c(Cl)c2)c[nH]1 (racemic) [Example 77, (R,S)-N-benzyl-1-[4-(3,4-dichlorophenyl)-1H-imidazol-2-yl]-1-heptanamine]",192 to 194
20,"Fc1ccc2c(CC(NCc3ccccc3)c3nc(-c4ccccc4)c[nH]3)c[nH]c2c1 (racemic) [Example 105, (R,S)-N-benzyl-2-(6-fluoro-1H-indol-3-yl)-1-(4-phenyl-1H-imidazol-2-yl)ethanamine]",98 to 100

row,SMILES,melting point [°C]
1,"c1ccc(CNC(c2ccccc2)c2nc(-c3ccccc3)c[nH]2)cc1 (racemic) [Example 133, (R,S)-N-benzyl(phenyl)(4-phenyl-1H-imidazol-2-yl)methanamine]",144 to 146
2,"Fc1ccc(-c2c[nH]c(C(CCCC(F)(F)F)NC3CCCCC3)n2)cc1 (racemic) [Example 136, (R,S)-N-{5,5,5-trifluoro-1-[4-(4-fluorophenyl)-1H-imidazol-2-yl]pentyl}cyclohexanamine]",220
3,"CCCCCCC(NCc1ccccc1)c1nc(-c2ccccc2)c[nH]1 (racemic) [Example 145, (R,S)-N-benzyl-1-(4-phenyl-1H-imidazol-2-yl)-1-heptanamine]",160 to 162
4,"CCCCC(NC(=O)OC(C)(C)C)c1nc(-c2ccccc2)c[nH]1 (racemic) [Example 174, tert-butyl (R,S)-1-(4-phenyl-1H-imidazol-2-yl)pentylcarbamate]",126
5,"CCCCCCC(NC(=O)OC(C)(C)C)c1nc(-c2ccccc2OC)c[nH]1 (racemic) [Example 183, tert-butyl (R,S)-1-[4-(2-methoxyphenyl)-1H-imidazol-2-yl]heptylcarbamate]",64 to 65
6,"CCCCC(NCc1ccccc1)c1nc(-c2ccccc2)c[nH]1 (racemic) [Example 186, (R,S)-N-benzyl-1-(4-phenyl-1H-imidazol-2-yl)-1-pentanamine]",200 to 202
7,"CCCCCCC(NC(=O)OC(C)(C)C)c1nc(-c2ccc(-c3ccccc3)cc2)c[nH]1 (racemic) [Example 192, (R,S)-4-(2-{1-[(tert-butoxycarbonyl)amino]heptyl}-1H-imidazol-4-yl)-1,1′-biphenyl]",142 to 144
8,"CCCCCCC(NCc1ccccc1)c1nc(-c2ccc(-c3ccccc3)cc2)c[nH]1 (racemic) [Example 195, (R,S)-N-benzyl-1-(4-[1,1′-biphenyl]-4-yl-1H-imidazol-2-yl)-1-heptanamine]",100 to 102
9,"CCCCCCC(NCc1ccccc1)c1nc(-c2ccccc2OC)c[nH]1 (racemic) [Example 201, (R,S)-N-benzyl-1-[4-(2-methoxyphenyl)-1H-imidazol-2-yl]-1-heptanamine]",155 to 157
10,"CCCCCC(NCc1ccccc1)c1nc(-c2ccccc2)c[nH]1 (racemic) [Example 202, (R,S)-N-benzyl-1-(4-phenyl-1H-imidazol-2-yl)-1-hexanamine]",192 to 194
11,"CCCCCCC(NCc1ccccc1)c1nc(-c2cccc(OC)c2)c[nH]1 (racemic) [Example 216, (R,S)-N-benzyl-1-[4-(3-methoxyphenyl)-1H-imidazol-2-yl]-1-heptanamine]",141 to 142
12,"CCCCCCC(NCc1ccccc1)c1nc(-c2ccc(C#N)cc2)c[nH]1 (racemic) [Example 217, (R,S)-4-{2-[1-(benzylamino)heptyl]-1H-imidazol-4-yl}benzonitrile]",188 to 189
13,"CCCCCCC(NCCC)c1nc(-c2ccccc2)c[nH]1 (racemic) [Example 224, (R,S)-N-[1-(4-phenyl-1H-imidazol-2-yl)heptyl]-N-propylamine]",94 to 98
14,"CCCCCCC(NCc1ccc(OC)cc1)c1nc(-c2ccccc2)c[nH]1 (racemic) [Example 227, (R,S)-N-(4-methoxybenzyl)-1-(4-phenyl-1H-imidazol-2-yl)-1-heptanamine]",126 to 128
15,"CC(C)CCCC(NCc1ccccc1)c1nc(-c2cccc(Br)c2)c[nH]1 (racemic) [Example 235, (R,S)-N-benzyl-1-[4-(3-bromophenyl)-1H-imidazol-2-yl]-5-methyl-1-hexanamine]",92 to 94
16,"CCCCCCC(NC1CCC1)c1nc(-c2ccccc2)c[nH]1 (racemic) [Example 240, (R,S)-N-[1-(4-phenyl-1H-imidazol-2-yl)heptyl]cyclobutanamine]",148 to 150
17,"CCCCCCC(NC(C)C)c1nc(-c2ccccc2)c[nH]1 (racemic) [Example 248, (R,S)-N-isopropyl-N-[1-(4-phenyl-1H-imidazol-2-yl)heptyl]amine]",114 to 116
18,"Fc1ccc(-c2c[nH]c(C(NC3CCC3)C3CCCC3)n2)cc1 (racemic) [Example 274, (R,S)-N-{cyclopentyl[4-(4-fluorophenyl)-1H-imidazol-2-yl]methyl}cyclobutanamine]",146 to 148
19,"C#CCN(C)Cc1nc(-c2cc(C(C)(C)C)c(O)c(C(C)(C)C)c2)cs1 [Example 2, 2,6-di(tert-butyl)-4-(2-{[methyl(2-propynyl)amino]methyl}-1,3-thiazol-4-yl)phenol]",210 to 215
